Data published in US10995091B2 (Proximagen, LLC, priority 2010, dated 2021).
Counter-ions that a name gives are not always drawn.

Target: T1, Human CXCR4 transfected HEK293 cells (Homo sapiens, UniProt P61073)
T1 construct: expressed in transfected cells; host or cells: HEK293
Assay: CXCR4 functional calcium assay (calcium flux FLIPR, antagonism of SDF1 response)
Assay type: cell-based
Conditions: CXCR4 functional activity, antagonism of SDF1 (EC50 concentration), read-out: CXCR4 fKi
Description: The functional activity of test compounds was routinely tested by measuring the ability of compounds to antagonize CXCR4 activity in a dose dependent manner, using a calcium flux Fluorescent Imaging Plate Reader FLIPR assay.
Human CXCR4 transfected HEK293 cells were cultured in Dulbecco's modified Eagles medium containing 4.5 g/L glucose, L-glutamine, pyruvate, 50 µg/mL Geneticin and 250 µg/mL hygromycin B and maintained at 37° C. in a humidified, 5% CO2 controlled atmosphere. Subcultivations were performed every 2-3 d.
At confluence the cells were lifted using Ca^2+ and Mg^2+ free PBS/0.02% (w/v) EDTA, spun at 1000 rpm for 3 min and resuspended at 2.5×10^5 cells/mL. Cells were plated into a 384 well, poly-d-lysine coated, black with clear bottomed plate (Becton Dickinson) at 7500 cells/well. The plates were incubated overnight at 37° C. under 5% CO2. On the day of the experiment the cells were washed with incubation Buffer (HBSS containing 2.5 mM probenecid, 0.1% w/v BSA and 10 mM HEPES, pH 7.4 at 37° C.). After washing, the cells were loaded with Fluo-4 AM dye (Molecular probes) at 2 µM containing 0.48 µg/mL pluronic acid for 60 min at 37° C. under 5% CO2. After thorough washing with incubation buffer the cells were preincubated for 10 min at 37° C. before use.
A combined agonist/antagonist protocol was used to measure changes in intracellular calcium concentration. Compound (antagonist) was added to the cell plate using a Fluorometric Imaging Plate Reader (FLIPR) (Molecular Devices, Sunnyvale, Calif., USA). Basal fluorescence was recorded every second for 10 seconds prior to compound addition (10 μl) and fluorescence recorded every second for 1 min then every 6 seconds for a further 1 min. SDF1[…] (EC50 concentration) was then added using the FLIPR and fluorescence recorded as described above. Curve-fitting and parameter estimation were carried out using GraphPad Prism 4.0 (GraphPad Software Inc., San Diego, Calif.).

T1 sequence (P61073 whole entry): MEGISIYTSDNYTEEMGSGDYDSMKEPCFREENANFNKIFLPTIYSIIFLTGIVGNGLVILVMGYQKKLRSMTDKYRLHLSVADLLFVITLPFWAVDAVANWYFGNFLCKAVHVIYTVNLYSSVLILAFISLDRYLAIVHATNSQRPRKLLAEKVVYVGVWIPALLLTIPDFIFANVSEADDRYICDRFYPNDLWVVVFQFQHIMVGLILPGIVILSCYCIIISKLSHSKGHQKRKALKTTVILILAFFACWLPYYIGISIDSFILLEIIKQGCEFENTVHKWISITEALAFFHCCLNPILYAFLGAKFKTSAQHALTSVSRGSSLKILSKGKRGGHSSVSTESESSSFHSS

| Ki [nM] | SMILES |
| --- | --- |
| < 20 | [2H]C1([2H])CCN(C2CCN(C(C)C)CC2)CCN1c1cccc(C(=O)Nc2ccncc2)n1 [Example 175, 6-{7,7-Dihydrogenio-4-[1-(propan-2-yl)piperidin-4-yl]-1,4-diazepan-1-yl}-N-(pyridine-4-yl)pyridine-2-carboxamide] |
| 100 to 500 | Cc1cc(C(=O)NCCCn2ccnc2)nc(N2CCCN(C3CCN(Cc4ccccc4Cl)CC3)CC2)n1 [Example 266, 2-(4-{1-[(2-Chlorophenyl)methyl]piperidin-4-yl}-1,4-diazepan-1-yl)-N-[3-(1H-imidazol-1-yl)propyl]-6-methylpyrimidine-4-carboxamide] |
| < 20 | O=C(NCc1ccncc1)c1cccc(N2CCCN(C3CCN(Cc4ccccc4Cl)CC3)CC2)n1 [Example 56, 6-(4-{1-[(2-Chlorophenyl)methyl]piperidin-4-yl}-1,4-diazepan-1-yl)-N-(pyridine-4-ylmethyl)pyridine-2-carboxamide] |
| 100 to 500 | CCc1cnc(-c2cccc(NCCNC3CCN([C@H](C)CC)CC3)n2)[nH]1 [Example 235, 1-[(2R)-Butan-2-yl]-N-(2-{[6-(4-ethyl-1H-imidazol-2-yl)pyridin-2-yl]amino}ethyl)piperidin-4-amine] |
| 100 to 500 | CC(C)N1CCC(N2CCCN(c3cccc(-c4noc(-c5cccnc5)n4)n3)CC2)CC1 [Example 166, 1-[1-(Propan-2-yl)piperidin-4-yl]-4-{6-[5-(pyridine-3-yl)-1,2,4-oxadiazol-3-yl]pyridine-2-yl}-1,4-diazepane tetrahydrochloride] |
| < 20 | [2H]C1([2H])CCN(c2cccc(C(=O)Nc3ccncc3)n2)CC(C)N1C1CCN(C(C)C)CC1 (stereo not drawn) [Example 195, 6-{5,5-Dihydrogenio-3-methyl-4-[1-(propan-2-yl)piperidin-4-yl]-1,4-diazepan-1-yl}-N-(pyridin-4-yl)pyridine-2-carboxamide] |
| 100 to 500 | CC(C)N1CCC(N2CCCN(c3cccc(C(=O)NCc4nccn4C)n3)CC2)CC1 [Example 37, N-[(1-Methyl-1H-imidazol-2-yl)methyl]-6-{4-[1-(propan-2-yl)piperidin-4-yl]-1,4-diazepan-1-yl}pyridine-2-carboxamide] |
| 100 to 500 | CCNC(=O)c1cccc(N2CCCN(C3CCN(C(C)C)CC3)CC2)n1 [Example 4, N-Ethyl-6-{4-[1-(propan-2-yl)piperidin-4-yl]-1,4-diazepan-1-yl}pyridine-2-carboxamide] |
| < 20 | [2H]C1([2H])CCN(c2cccc(C(=O)Nc3ccncc3)n2)CCN1C1CCN([C@@H](C)C(F)(F)F)CC1 [Example 190, 6-(5,5-Dihydrogenio-4-{1-[(2S)-1,1,1-trifluoropropan-2-yl]piperidin-4-yl}-1,4-diazepan-1-yl)-N-(pyridin-4-yl)pyridine-2-carboxamide] |
| 500 to 1000 | CC(C)N1CCC(N2CC3CC(C2)N(c2cccc(C(=O)NCC4CC4)n2)C3)CC1 (stereo not drawn) [Example 200, N-(Cyclopropylmethyl)-6-{3-[1-(propan-2-yl)piperidin-4-yl]-3,6-diazabicyclo[3.2.1]octan-6-yl}pyridine-2-carboxamide] |
| < 20 | CCc1cnc(-c2cccc(N3CCCN(C4CCN([C@H](C)CC)CC4)CC3)n2)[nH]1 [Example 116, 1-{1-[(2R)-Butan-2-yl]piperidin-4-yl}-4-[6-(4-ethyl-1H-imidazol-2-yl)pyridine-2-yl]-1,4-diazepane] |
| < 20 | O=C(Nc1ccncc1)c1cccc(N2CCCN(C3CCN(Cc4ccccc4Cl)CC3)CC2)n1 [Example 54, 6-(4-{1-[(2-Chlorophenyl)methyl]piperidin-4-yl}-1,4-diazepan-1-yl)-N-(pyridine-4-yl)pyridine-2-carboxamide] |
| < 20 | O=C(Nc1ccncc1)c1cccc(N2CC[C@@H](NCC3CCN(C4CCCC4)CC3)C2)n1 [Example 228, 6-[(3R)-3-{[(1-Cyclopentylpiperidin-4-yl)methyl]amino}pyrrolidin-1-yl]-N-(pyridin-4-yl)pyridine-2-carboxamide] |
| 20 to 100 | CC(C)N1CCC(N2CCCN(c3cccc(-c4nc5ccc(F)cc5[nH]4)n3)CC2)CC1 [Example 147, 6-Fluoro-2-(6-{4-[1-(propan-2-yl)piperidin-4-yl]-1,4-diazepan-1-yl}pyridine-2-yl)-1H-1,3-benzodiazole] |
| < 20 | CCc1[nH]c(-c2cccc(N3CCCN(C4CCN(C(C)C)CC4)CC3)n2)nc1C [Example 119, 1-[6-(5-Ethyl-4-methyl-1H-imidazol-2-yl)pyridine-2-yl]-4-[1-(propan-2-yl)piperidin-4-yl]-1,4-diazepane] |

Second part, the molecule before the results:

| SMILES | Ki [nM] |
| --- | --- |
| CCc1cnc(-c2cccc(N3CCCN(C4CCN(C(C)C)CC4)CC3)n2)[nH]1 [Example 108, 1-[6-(4-Ethyl-1H-imidazol-2-yl)pyridine-2-yl]-4-[1-(propan-2-yl)piperidin-4-yl]-1,4-diazepane] | < 20 |
| CC(C)N1CCC(N2CC3CCC2CN(c2cccc(C(=O)NCC4CC4)n2)C3)CC1 (stereo not drawn) [Example 199, N-(Cyclopropylmethyl)-6-{6-[1-(propan-2-yl)piperidin-4-yl]-3,6-diazabicyclo[3.2.2]nonan-3-yl}pyridine-2-carboxamide trihydrochloride] | 500 to 1000 |
| CC(C)N1CCC(N2CCCN(c3cccc(-c4nc5ccccc5n4C)n3)CC2)CC1 [Example 140, 1-Methyl-2-(6-{4-[1-(propan-2-yl)piperidin-4-yl]-1,4-diazepan-1-yl}pyridin-2-yl)-1H-1,3-benzodiazole] | 500 to 1000 |
| CC(C)N1CCC(N2CCCN(c3cccc(C(=O)Nc4cncs4)n3)CC2)CC1 [Example 32, 6-{4-[1-(Propan-2-yl)piperidin-4-yl]-1,4-diazepan-1-yl}-N-(1,3-thiazol-5-yl)pyridine-2-carboxamide] | < 20 |
| Cc1cc(NC(=O)c2cccc(N3CCCN(C4CCN(C(C)C)CC4)CC3)n2)ccn1 [Example 86, N-(2-Methylpyridin-4-yl)-6-{4-[1-(propan-2-yl)piperidin-4-yl]-1,4-diazepan-1-yl}pyridine-2-carboxamide] | < 20 |
| Cc1cc(NC(=O)c2cccc(N3CCCN(C4CCN(C(C)C)CC4)CC3)n2)cc(C)n1 [Example 87, N-(2,6-Dimethylpyridin-4-yl)-6-{4-[1-(propan-2-yl)piperidin-4-yl]-1,4-diazepan-1-yl}pyridine-2-carboxamide] | < 20 |
| [2H]C1([2H])CCN(c2cccc(C(=O)Nc3ccncc3)n2)CC(C)N1C1CCN([C@@H](C)C(F)(F)F)CC1 (stereo partly drawn) [Example 196, 6-(5,5-Dihydrogenio-3-methyl-4-{1-[(2S)-1,1,1-trifluoropropan-2-yl]piperidin-4-yl}-1,4-diazepan-1-yl)-N-(pyridin-4-yl)pyridine-2-carboxamide] | 20 to 100 |
| CC(C)N1CCC(N2CCCN(c3cccc(-c4nc5ccccc5[nH]4)n3)CC2)CC1 [Example 141, 2-(6-{4-[1-(Propan-2-yl)piperidin-4-yl]-1,4-diazepan-1-yl}pyridine-2-yl)-1H-1,3-benzodiazole] | < 20 |
| Cc1nc(-c2cccc(N3CCCN(C4CCN(C(C)C)CC4)CC3)n2)no1 [Example 153, 1-[6-(5-Methyl-1,2,4-oxadiazol-3-yl)pyridin-2-yl]-4-[1-(propan-2-yl)piperidin-4-yl]-1,4-diazepane] | 500 to 1000 |
| CC(C)N1CCC(N2CCCN(c3cccc(C(=O)NCc4nccs4)n3)CC2)CC1 [Example 39, 6-{4-[1-(Propan-2-yl)piperidin-4-yl]-1,4-diazepan-1-yl} N-(1,3-thiazol-2-ylmethyl)pyridine-2-carboxamide] | 20 to 100 |
| CC(C)N1CCN(C)[C@H](CN2CCCN(c3cccc(C(=O)Nc4ccncc4)n3)CC2)C1 [Example 202, 6-(4-{[(2R)-1-Methyl-4-(propan-2-yl)piperazin-2-yl]methyl}-1,4-diazepan-1-yl)-N-(pyridin-4-yl)pyridine-2-carboxamide] | 500 to 1000 |
| COc1ccccc1CN1CCC(N2CCCN(c3cccc(C(=O)NCC4CC4)n3)CC2)CC1 [Example 133, N-(Cyclopropylmethyl)-6-(4-{1-[(2-methoxyphenyl)methyl]piperidin-4-yl}-1,4-diazepan-1-yl)pyridine-2-carboxamide] | 20 to 100 |
| CC(C)N1CCC(N2CCCN(c3cccc(C(=O)NCc4cccnc4)n3)CC2)C(F)C1 (stereo not drawn) [Example 185, 6-{4-[3-Fluoro-1-(propan-2-yl)piperidin-4-yl]-1,4-diazepan-1-yl}-N-(pyridin-3-ylmethyl)pyridine-2-carboxamide] | 100 to 500 |
| O=C(NCC1CC1)c1cccc(N2CCCN(C3CCN(C(CF)CF)CC3)CC2)n1 [Example 59, N-(Cyclopropylmethyl)-6-{4-[1-(1,3-difluoropropan-2-yl)piperidin-4-yl]-1,4-diazepan-1-yl}pyridine-2-carboxamide] | 100 to 500 |
| CCCC(=O)c1cccc(N2CCCN(C3CCN(C(C)C)CC3)CC2)n1 [Example 219, 1-(6-{4-[1-(Propan-2-yl)piperidin-4-yl]-1,4-diazepan-1-yl}pyridin-2-yl)butan-1-one] | 100 to 500 |
